We go through 1 molecule from US20020040018A1, “Subtype selective melatonergics” (priority 2000, published 2002).

Series [1] deals with mice. The series can be described thus: Elevated platform test for phencyclidine-like behavioral effects. The following applies: 15 minutes after i.c.v. administration. Format: in vivo. The procedure: The in vivo phencyclidine-like behavioral effects of CGX-031-120 is assessed by the elevated platform test as described by Evoniuk et al. (1991). The platform test is a rapid method for evaluating the behavioral effects of phencyclidine-like dissociative anesthetics in mice. […] Alternatively, as a control, a 44.5 nmol dose of MK 801 (dizocilpine) elicited 87.5% drug-induced falls from the elevated platform.

Series [2] concerns mice. The series can be described thus: Neuropathic pain, partial sciatic nerve ligation model. The following applies: mouse, in vivo. The source says:
Neuropathic pain. The partial sciatic nerve ligation model is used to assess the efficacy of CGX-031-120 in neuropathic pain. Nerve injury is produced according to the methods of Malmberg and Basbaum (1998). Animals are anesthetized with a ketamine/xylazine solution, the sciatic nerve is exposed and tightly ligated with 8-0 silk suture around ⅓ to ½ of the nerve. In sham-operated mice the nerve is exposed, but not ligated. Animals are allowed to recover for at least 1 week before testing is performed. On the testing day, mice are placed in plexiglass cylinders on a wire mesh frame and allowed to habituate for at least 60 minutes. Mechanical allodynia is assessed with calibrated von Frey filaments using the up-down method as described by Chaplan et al. (1994), and the 50% withdrawal threshold is calculated.

`CCC(=O)NCCc1c2n(c3ccc(OC)cc13)Cc1ccccc1-2` [CGX-031-120, N-propanol-2-(2-methoxy-6H-isoindolo-[2,1a]-indol-11-yl)-ethanamine]: the “drug-induced falls from the elevated platform” value in the series on mice [1] was “no drug-induced falls”. Further, in the series with mice [2], the “analgesic activity in a model of neuropathic pain” value is reported as “shows analgesic activity”.
